# Results published in patent publication US12435315B2, “Generating dorsal foregut, and anterior domain, endoderm cells” (The Cleveland Clinic Foundation, priority 2019, dated 2025).
# B1: FGF4 (protein, UniProt P08620 31-206, looked up)
# Fibroblast growth factor 4: APTAPNGTLEAELERRWESLVALSLARLPVAAQPKEAAVQSGAGDYLLGIKRLRRLYCNVGIGFHLQALPDGRIGGAHADTRDSLLELSPVERGVVSIFGVASRFFVAMSSKGKLYGSPFFTDECTFKEILLPNNYNAYESYKYPGMFIALSKNGKTKKGNRVSPTMKVTHFLPRL
# notes: FGF signaling growth factor (R&D 7460-F4)
# B2: Activin A (protein, UniProt P08476 311-426, looked up)
# Inhibin beta A chain: GLECDGKVNICCKKQFFVSFKDIGWNDWIIAPSGYHANYCEGECPSHIAGTSGSSLSFHSTVINHYRMRGHSPFANLKSCCVPTKLRPMSMLYYDDGQNIIKKDIQNMIVEECGCS
# modifications: Inhibin beta A chain
# notes: TGFβ pathway agonist used as a Nodal mimic
# Assays:
# Assay type in all cases: cell-based, human
# pluripotent stem cells [1] = assay: DoE/ISPA of biologically active retinoids for HNF1β induction (DFE induction); settings: retinoid DoE; 13-cis and all trans stated to contribute negatively
# Text: (§1) All DoE experimental designs were computer generated using D-optimal interaction designs in MODDE software (Sartorius Stedim Data Analytical Solutions, SSDAS). Perturbation matrixes were generated (96 independent experimental runs) on a Freedom Evol50 liquid handling robot (TECAN, CH). Each DoE differentiation experiment used a 3-day application of perturbation matrixes with daily media replacements. All cell culture, including manual preparatory expansion and seeding as well as any robotic manipulations were contained in a modular X-Vivo system (Biospherix, NY, USA) providing Process Analytical Technology (PAT) of the cell culture conditions (affording % N2, % O2, % CO2, and temperature control and monitoring at any point in the experimental process). End-point data collection was performed using an Open Array RT-QPCR method (QuantStudio, Life Technologies, 53 genes/sample/card). QuantStudio gene expression data were normalized within Expression Suite™ (Life Tech), standardized, and exported to MODDE. Mathematical modeling of the differentiation space was performed in MODDE using PLS maximizing the explained variance and subsequently gene-specific models were tuned by Q2 maximization. Fitted model optimized conditions for response maximization or minimization were extracted using the software predictive tools ‘optimizer’ and ‘dynamic profile’ analysis. Virtual experiments were performed in the known space covered by the experimental design, addressing pathway relative contributions to the desired parameters.
# Samples were loaded onto a custom design Quant Studio Card using an OpenArray AccuFill System (Life Technologies 4471021) and ran on a QuantStudio 12k Flex Real-Time PCR System (Life Technologies 4471090). The QuantStudio Open Array analysis provided expression information of 53 chosen genes per open array configuration. […] Initial designs included genes responding to all major sub-lineage fates downstream of pluripotency, while the later design focused more on endodermal lineages with an emphasis on pancreatic fates. […]
# pluripotent cultures [2] = assay: DoE/ISPA modeling of endodermal gene induction from pluripotency (3-day perturbation matrix, OpenArray RT-QPCR); settings: ISPA prediction; for factor contribution (FC) for FOXA2 expression / factor contribution (FC) for HNF1β expression / factor contribution (FC) for MNX1 expression: pluripotent cultures
# Description: Pluripotent cultures were adapted to Essential 8 media (Gibco A15169-01) and grown on vitronectin (Gibco A14700) coated plates (Corning Inc. 3598). Differentiation experiments were seeded at 75,000 cells per cm^2 and maintained in E8 medium for 48 hours until cultures were approximately 90% confluent before initiating differentiation. All growth factors and small molecules were reconstituted according to supplier's recommendations and aliquots were stored at −80° C. for up to a year. Growth medium was changed daily and with the exception of the DE protocol the basal medium used in all differentiation experiments was CDM2 (Loh et al., 2014). The APS^Opt was composed of 250 nM LDN3189 (Sellekchem S2618), 50 ng/ml Activin A (Peprotech 120-14), 20 ng/ml bFGF (Gibco 13256029), 100 nM Sant1 (Sellekchem S7092). The HNF1β^Opt was supplemented with 250 nM LDN3189, 500 nM A8301 (Biogems 4463325), 12.6 ng/ml Wnt3a (R&D 5036WN/CF), 25 ng/ml bFGF, 250 nM PD0325 (Selleckchme S1036), 40 ng/ml SHH (Peprotech 100-45) and 2 uM retinoic acid (Sigma Aldrich R2625). DE was generated using conditions previously described (Rezania et al., 2014, D'Amour et al., 2005). The PDX1^Opt was composed of 500 nM A8301, 250 nM LDN3189, 100 nM Sant1, 250 nM PD0325, 2 uM retinoic acid and 1% B27 supplement (Gibco 12587) and with the exception of where it is stated differently in the text was used for 3 sequential days on differentiating cells. Endocrine push medium was supplemented with 100 nM gamma-secretase inhibitor XX (EMD Millipore 565789) and 500 nM A8301. Stomach organoids were generated using a modified protocol (McCracken et al., 2014). Briefly HNF1β^Opt cultures were incubated for three days with a stage 2 medium supplemented with 500 ng/ml Wnt3a, 500 ng/ml FGF4 (R&D 7460-F4), 250 nM LDN3189 and 2 uM retinoic acid (RA first day only). Cultures were passaged 1:6 with seeding occurring in a 1:4 Matrigel (Fisher Scientific 354230)/CDM2 mixture and incubated for 30 minutes at 37° C. before a three day application of stage 3 medium composed of 2 uM retinoic acid, 250 nM LDN3189 and 100 ng/ml EGF (R&D 236-EG). Cultures were then supplemented with a stage 4 medium supplemented with 100 ng/ml EGF for 23 days before organoids were recovered and fixed for sectioning.
# as §1
# RNA extractions for modeling analysis were performed using a MagMax-96 Total RNA Isolation Kit (Life Technologies AM1830) and performed according to manufacturer's protocol. […]
# pluripotent stem cells [3] = assay: Immunostaining and high content imaging of DFE markers (conversion efficiency); settings: immunostaining of DFE markers, compared with HNF1β^Opt / RA
# Description: Histological characterization occurred by treating cell cultures with 4% paraformaldehyde (EMD 30525-89-4) solution at ambient temperature for 15 minutes. Samples were then blocked and permeabilized using 0.1M Tris/HCl (Promega H5123) pH 7.5 supplemented with 0.5% blocking reagent (Perkin Elmer FP1012) and 0.1% TrintonX-100 (Fisher Scientific BP151) for 1 hour. All antibody solutions were diluted in 0.1M Tris/HCl (Promega H5123) pH 7.5 and primary antibodies were incubated over-night while secondary antibodies were incubated for an hour. All incubations occurred at ambient temperature. Cultures were treated with a 1:2 dilution of Vectashield mounting medium (Vector Laboratories H-1200).
# To further validate the induction conditions for DFE markers, immunostaining was performed, followed by high content imaging to assess conversion efficiency.
# [4] = tested on: DFE-derived endocrine cultures; assay: Glucose stimulated insulin release assay (GSIS), C-peptide ELISA; settings: 30 mM KCl, 30 minute incubation, versus 2 mM glucose basal
# Description: GSIS assays were performed by incubating cells in Krebs-Ringer buffer supplemented with 2 mM glucose for 30 minutes for determination of basal C-peptide levels. This was followed by changing reaction buffer to a Krebs Ringer buffer either supplemented with 20 mM glucose or 30 mM KCl for an additional 30 minute incubation. Buffer samples were collected and C-Peptide levels were quantified using ELISA (Mercodia 10-1141-01) according to manufacturer's protocol. Microfludic assays were performed as previously described (Adewola et al., 2010, Wang et al., 2012).
# DFE culture = assay: Sequential DoE/ISPA modelling on DFE culture, maximizing SOX2, OSR1 or PDX1 expression; settings: ISPA; for factor contribution (FC) for PDX1 (pancreatic) activation: PDX1^Opt
# Description: Since we observed that the DFE cultures were competent for both stomach and pancreas induction we next evaluated this bi-potential nature through a sequential DoE modelling experiment performed on the DFE culture.
# Results from ISPA maximization of the expression of SOX2, OSR1 or PDX1 were compared (FIGS. 4A & B).
# Pluripotent cultures were adapted to Essential 8 media (Gibco A15169-01) and grown on vitronectin (Gibco A14700) coated plates (Corning Inc. 3598). Differentiation experiments were seeded at 75,000 cells per cm^2 and maintained in E8 medium for 48 hours until cultures were approximately 90% confluent before initiating differentiation. All growth factors and small molecules were reconstituted according to supplier's recommendations and aliquots were stored at −80° C. for up to a year. Growth medium was changed daily and with the exception of the DE protocol the basal medium used in all differentiation experiments was CDM2 (Loh et al., 2014). The APS^Opt was composed of 250 nM LDN3189 (Sellekchem S2618), 50 ng/ml Activin A (Peprotech 120-14), 20 ng/ml bFGF (Gibco 13256029), 100 nM Sant1 (Sellekchem S7092). The HNF1β^Opt was supplemented with 250 nM LDN3189, 500 nM A8301 (Biogems 4463325), 12.6 ng/ml Wnt3a (R&D 5036WN/CF), 25 ng/ml bFGF, 250 nM PD0325 (Selleckchme S1036), 40 ng/ml SHH (Peprotech 100-45) and 2 uM retinoic acid (Sigma Aldrich R2625). […] The PDX1^Opt was composed of 500 nM A8301, 250 nM LDN3189, 100 nM Sant1, 250 nM PD0325, 2 uM retinoic acid and 1% B27 supplement (Gibco 12587) and with the exception of where it is stated differently in the text was used for 3 sequential days on differentiating cells.
# pluripotent cultures [5] = assay: HD-DoE gastrulation modeling, normalized effector factor contributions for endodermal genes; settings: ISPA
# Text: as §1, with “Virtual experiments were performed in the known space covered by the experimental design, addressing pathway relative contributions to the desired parameters.” left out
# To better understand how the in vitro produced endodermal populations being studied are patterned we next performed a follow-up DoE-based gastrulation modeling experiment (FIG. 16A). ISPA optimizing for all the individual endoderm genes measured were then subjected to a cluster analysis using Seurat R package (FIG. 16B). […]
# HD-DoE designs incorporating Activin A (AA), BMP4, NODAL, retinoic acid and respective inhibitors were used on pluripotent cultures and key endodermal genes were monitored (FIG. 16). Resulting data was imported into analysis software and computer models predicting optimal culture conditions for activating all genes monitored were clustered (FIG. 19B). […]
molecule,measurement,setting,value
CC1=C(/C=C/C(C)=C/C=C/C(C)=C/C(=O)O)C(C)(C)CCC1=O [4-oxo-retinoic acid],factor contribution (FC) to HNF1β induction,pluripotent stem cells [1],13.21
CC1=C(/C=C/C(C)=C/C=C/C(C)=C\C(=O)O)C(C)(C)CCC1 [13-cis retinoic acid],factor contribution (FC) to HNF1β induction,pluripotent stem cells [1],24.1609
"Cc1cccc(-c2nn(C(=S)Nc3ccccc3)cc2-c2ccnc3ccccc23)n1 [Alk5i, A8301]",factor contribution (FC) for FOXA2 expression,pluripotent cultures [2],8.88
same,factor contribution (FC) for HNF1β expression,pluripotent cultures [2],7.59
same,factor contribution (FC) for MNX1 expression,pluripotent cultures [2],18.98
"c1ccc2c(-c3cnn4cc(-c5ccc(N6CCNCC6)cc5)cnc34)ccnc2c1 [BMPi, LDN193189]",factor contribution (FC) for FOXA2 expression,pluripotent cultures [2],25.3
same,factor contribution (FC) for HNF1β expression,pluripotent cultures [2],31.7
same,factor contribution (FC) for MNX1 expression,pluripotent cultures [2],30.5
CC1(C)CCC(C)(C)c2cc(C#Cc3ccc(C(=O)O)cc3)ccc21 [EC23],effectiveness of DFE induction by alternative retinoic acid pathway agonists,pluripotent stem cells [3],operates equivalently to RA
[Cl-].[K+] [KCl],increase in detectable C-peptide levels,[4],4 fold
O=C(NOC[C@H](O)CO)c1ccc(F)c(F)c1Nc1ccc(I)cc1F [PD0325901],factor contribution (FC) for PDX1 (pancreatic) activation,DFE culture,29.62
"CC1=C(/C=C/C(C)=C/C=C/C(C)=C/C(=O)O)C(C)(C)CCC1 [RA, retinoic acid]",factor contribution (FC) to HNF1β induction,pluripotent stem cells [1],2.773
same,factor contribution (FC) for OSR1 (gastric) activation,DFE culture,30.68
same,factor contribution (FC) for SOX2 expression,DFE culture,−28.59
same,factor contribution (FC) for PDX1 (pancreatic) activation,DFE culture,31.38
same,factor contribution (FC) for FOXA2 expression,pluripotent cultures [2],24.8
same,factor contribution (FC) for HNF1β expression,pluripotent cultures [2],30.1
same,factor contribution (FC) for MNX1 expression,pluripotent cultures [2],22.7
SHH,factor contribution (FC) for SOX2 expression,DFE culture,29.58
B1,factor contribution (FC) for OSR1 (gastric) activation,DFE culture,13.45
B2,contribution to activating retinoic acid/BMP inhibition-dependent endoderm genes,"pluripotent cultures [2]; FOXA2, HNF1β, MNX1 etc.",no contribution
same,factor contribution (FC) to anterior primitive streak (APS) gene induction,"pluripotent cultures [2]; maximal MESP1, EOMES, BRACHYURY/T, minimal EVX1",18.85
same,normalized factor contribution for OSR1 activation,pluripotent cultures [5],−1.0
same,normalized factor contribution for PAX9 activation,pluripotent cultures [5],−0.85
same,normalized factor contribution for TBX1 activation,pluripotent cultures [5],−0.59
